SMILES strings stand for the structures. “Also recorded” adds a separate entry of the source.

The test system of data set [1] is stomata. Briefly: Stomatal aperture in epidermal leaf peels. The format is cell-based, Arabidopsis. Here is the method: (§1) Five- to six-week-old plants were used to prepare epidermal peels. ABA at a concentration of 20 μM in water was root fed to hydroponically grown plants or sprayed onto leaves using a Studio Series IS-875 with a 0.5 mm nozzle opening (Iwata). We investigated if PAP accumulation in the double mutants could affect the production of NO during ABA-induced stomatal closure by treating epidermal peels with the inhibitor of NO synthase N(G)-methyl-L-arginine (NMA). For the investigation of the effect of different chemicals on stomatal closure, 20 μM ABA (Sigma-Aldrich), 100 mM LiCl, or 1 mM ATP, 1 mM or 100 μM PAP (Sigma-Aldrich) alone or in different combinations were prepared in infiltration buffer (1 mM PIPES KOH pH 6.0, 1 mM Sodium citrate, 1 mM KCl, 15 mM Sucrose) modified from a cordycepin infiltration buffer.
Measurements of stomatal aperture were performed with epidermal strips taken from five- to six-week-old plants. Fully developed leaves were cut and placed with their adaxial side onto cello tape. The vein was removed by razor blade and the abaxial epidermis was subsequently peeled off by using another strip of cello tape. To promote stomatal opening, the peels left adhered to the Scotch (810D Magic Tape, ¾ inch, 3M) were placed in petri dishes filled with stomatal opening solution (10 mM MES, 5 mM KCl, 50 μM CaCl2, pH 6.5) and incubated for 2 h at 22° C. under 150-200 μmol photons m^−2 s^−1 of light. Once the stomata were fully open, strips were maintained in the opening buffer or treated with various compounds according to the experiment. After treatment, photographs of stomata were taken using Leica microscope (Leica Microsystems, Wetzlar, Germany) at 20×. Stomatal aperture was measured using the image-processing software ImageJ. For stomatal aperture measurements, the ratio of stomatal pore width and length was used instead of width as this normalizes the pores of stomata of different size. Small stomata with a stomatal pore length of less than 7.5 μm were discarded. For each data point, 90 stomata were measured in 3 independent experiments. In each experiment, 10 stomata were measured in 3 epidermal strips per sample per treatment.
(§2) Measurements of stomatal closure in response to ABA, PAP, cordycepin and ATP treatments were performed on epidermal strips from Arabidopsis and barley plants grown under specific conditions. Plants were grown under high humidity (approximately 80% RH) and 12 h/12 h and 22/20° C. light/dark cycle in a growth chamber. Epidermal peels of newly expanding true leaves of three to four-week old plants. Stomatal apertures were measured in epidermal peels of newly expanded leaves. Peels were taken from the abaxial leaf surface and were fixed to the glass bottom of the experimental chamber after coating the chamber surface with an optically clear and pressure-sensitive silicon adhesive (Factor II, Tucson, USA). The attached epidermal peel is subsequently immersed in an opening buffer (OB: 50 mM KCl, 5 mM MES titrated to pH 6.1 with NaOH) and incubated, at plant growth conditions, for approximately 2 h. Stomatal images were taken using a bright-field microscope capable of 400× magnification for 10 minutes in OB and subsequently in Measuring Buffer [MB: 10 mM KCl, 5 mM MES titrated to pH 6.1 with Ca(OH)2] or PAP or cordycepin or ABA (dissolved in MB) for another 50 min. In total this was a 60 minute time course and images of the epidermal section were taken every 5 minutes using NIS Elements software (Nikon, Japan). Stomata aperture width and length were measured using Image J (NIH, USA). The pore area of each stomate was calculated using these values under the assumption that the area of a stomatal pore was that of an ellipse. Data are expressed as percentage over the control.

The subject of data set [2] is stomata. Briefly: Stomatal aperture in barley leaf epidermal peels. The format is cell-based. The note with it: exogenous PAP 100 μM. Here is the method:
as §2, with “Stomatal images were taken using a bright-field microscope capable of 400× magnification for 10 minutes in OB and subsequently in Measuring Buffer [MB: 10 mM KCl, 5 mM MES titrated to pH 6.1 with Ca(OH)2] or PAP or cordycepin or ABA (dissolved in MB) for another 50 min. In total this was a 60 minute time course and images of the epidermal section were taken every 5 minutes using NIS Elements software (Nikon, Japan).” left out

Another data set relates to seeds. The experiment in a line: Seed germination assay. The format is in vivo, Arabidopsis. Here is the method:
Seeds used for germination assays were 3-months-old and all from seed stocks produced and harvested from plants grown under identical conditions at the same time. Seeds were sterilized and grown on 0.8% (w/v) agar plates containing Murashige-Skoog (MS) nutrients and 2% (w/v) sucrose. Different combinations of 0, 1 μM ABA, 0, 0.5 μM paclobutrazol and/or 0, 100, 500 and 1000 μM PAP were supplemented into the media using the infiltration buffer. At least 70-100 seeds from each genotype were plated on the same plate for efficient comparison. The seeds were stratified at 4° C. in the dark for 48 h before transfer to a growth cabinet and grown at 22° C. under 24-h light (100 μmol photons m^−2 s^−1) unless stated otherwise. The germination was scored after 3 days as the emergence of the radicle through the seed coat and the germination rate was calculated as the percentage of the total number of seeds per treatment with five replicates for each treatment. The experiment was repeated twice and statistical analyses are described below.

The test system of data set [3] is guard cells. The experiment in a line: ROS accumulation in guard cells of epidermal peels. The format is cell-based, Arabidopsis. The note with it: wild type, ost1-2 and ost1-2 alx8. Here is the method:
The ABA- and PAP-induced accumulation of ROS in guard cells of epidermal peels was measured using dichlorofluorescein diacetate (H2DCFDA, Invitrogen). After 2 h of incubation in OB, the epidermal peel was incubated with 20 μM dye dissolved in DMSO and MB for 30 min, and then rinsed with MB three times. Epidermal peels were incubated in ABA or PAP dissolved in MB (or MB only as a negative control) for 10 min. Fluorescence images were taken using a Leica inverted confocal microscope controlled by the LAS AF software (Leica Microsystems, Germany). We used the 496-nm excitation line of an argon multiline laser. H2DCFDA fluorescence emission was detected at 505 to 525 nm. Chloroplast fluorescence was detected at 680 to 700 nm in order to separate the autofluorescence of chlorophyll in guard cells. Images were quantified with Image J software (National Institutes of Health, USA). The background signal was measured from the empty region of the similar size and subtracted from the stomata signal to obtain corrected total stomatal fluorescence values. Each stomate was considered to represent a single biological unit and thus fluorescence values were averaged across all stomata at each time point for each treatment. At least three biological replicates were measured for each treatment.

Data set [4] in a line: PAP accumulation in leaves after petiole feeding. The format is in vivo, Arabidopsis. The settings on record: petiole feeding of PAP for 1 h, alone or co-applied with LiCl or ATP. Here is the method: as §1
Total adenosines were extracted with 0.1 M HCl, derivatization with chloroacetaldehyde and quantified fluorometrically after HPLC fractionation. 3′-phosphoadenosine 5′-phosphate (PAP) quantification was performed by integrating the HPLC peak area and converting these to pmol units using standard curves of 1, 5 and 10 pmol standard.

Data set [5] concerns guard cells. The experiment in a line: Ion fluxes (K+, Cl- and Ca2+) in guard cells. The format is cell-based, Arabidopsis. The note with it: wild type, ost1-2, alx8 and ost1-2 alx8.

For `Nc1ncnc2c1ncn2[C@@H]1O[C@H](COP(=O)(O)O)[C@@H](OP(=O)(O)O)[C@H]1O` [PAP, 3′-phosphoadenosine 5′-phosphate], the “magnitude and rate of ABA-mediated stomatal closure with added PAP” value in the data set on stomata [1] (PAP together with ABA) is reported as “further enhanced”. Further, the “stomatal closure in leaf peels” value with stomata [1] (leaf peels of wild type plants, 1 hr, PAP 100 μM, ABA 100 μM, cordycepin 10 μM) is reported as “elicited rapid stomatal closure similar to the ABA response; also recorded: nearly identical to that of ABA”. Besides, in the data set with stomata [2], the “stomatal conductance in barley” value is listed as “regulates stomatal conductance in barley”. The “ABA responsiveness of germination in abi1-1” value with seeds (abi1-1 seeds, addition of PAP alone) is recorded as “restored ABA responsiveness in abi1-1”. Also, the “seed germination / dormancy” value in the data set with seeds (wild type seeds, exogenous PAP in conjunction with exogenous ABA (1 μM) or lower GA) was “extended the dormancy of seeds; also recorded: repress germination in wild type seeds in a dose-dependent manner”. Moreover, in the data set with guard cells [3], the “ROS burst in guard cells” value was “phenocopying of the timing and extent of the ABA-induced ROS burst”. Further, in data set [4], the “accumulation of PAP in leaves” value is “results in accumulation of PAP in leaves”. Moreover, in the data set on guard cells [5], the ion fluxes entry is “mediated similar rapid changes in ion fluxes in all genotypes”.

For the origin of these results see patent publication US20180355369A1, “Method for Increasing Plant Stress Tolerance and Seed Dormancy” (The Australian National University, priority 2015, published 2018).
